Measurements taken from US8372336B2, “Polymeric corrosion inhibitors” (Akzo Nobel Chemicals International B.V., priority 2009, dated 2013).

Assay: Bubble test, corrosion inhibition performance in brine (LPR)
Details: Forties synthetic brine, 55° C., CO2 saturated
Method: Corrosion Inhibition Performance in Brine
The tests were carried out using the well-known “bubble test” method, see for instance the discussion in NACE International, Vol. 46, No. 5, pp 46-51 (May 2007), where the corrosion rate is monitored by linear polarisation (LPR). First a baseline corrosion rate in the medium is established, and then corrosion rates with different amounts of inhibitor added are measured.
The detailed conditions for the tests were as follows:
CO2 CO2 Saturated at ambient pressure (˜0.9 bara partial pressure)
Solution 100% Typical “Forties” (North Sea water) synthetic brine as shown below:
• Chloride=42.539 mg/l • Sulphate=0 mg/l • Barium=173 mg/l • Calcium=1.979 mg/l • Strontium=351 mg/l • Magnesium=377 mg/l • Sodium=24.973 mg/l • Potassium=341 mg/l • Bicarbonate=200 mg/l Electrode Fabricated from AISI 1018 (UNS G10180), polished to 600 grit finish, degreased, rinsed, and dried Inhibitor Concentration 4 hour precorrosion without inhibitor, then dose with 10 or 20 mg/kg of inhibitor and evaluate corrosion rate for at least 8 h, then add inhibitor so that the next level of total inhibitor dosage is reached according to Table 1. After each addition the corrosion rate is measured for at least 8 h. Gas and partial Ambient pressure test. Maximum partial pressure 1 pressure bara (less saturated water vapour pressure at test temperature). Corrosion Monitoring LPR±10 mV step perturbation with a 2-minute time constant. A Stearn-Geary constant of 25 mV was used to calculate corrosion rates from LPR data. Corrosion rates were monitored throughout each test with a measurement taken every 30 minutes. […] The corrosion inhibitor bases were formulated as follows prior to testing: 40% base product 4% glacial acetic acid 20% n-butanol 36% water The % protection was calculated from the following equation: % protection=(1−(x/y))*100 wherein x=corrosion rate in the presence of corrosion inhibitor (mm/year) • y=corrosion rate in the absence of corrosion inhibitor (mm/year)

C12-C16 Coco benzyl quaternary amine [Quaternary amine*]
% Protection (20 ppm inhibitor): −28.3% | % Protection (50 ppm inhibitor): 38.0% | % Protection (100 ppm inhibitor): 97.7%
